This passage reports IC50 results from PubChem BioAssay AID1645862 (Buhrlage Lab, Dana-Farber Cancer Institute and Novartis …, 2021).

Structures are written as SMILES. Activity calls are given as the source filed them. No rule for the calls is given here.

The target in this assay is Ubiquitin carboxyl-terminal hydrolase 8 (Homo sapiens) (UniProt P40818). Kind of assay: Ubiquitin-specific protease 8 inhibitors, concentration-effect, biochemical, validation of initial actives (AID 1645862).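 Also: potency reflects inhibition of USP8 cleavage of a ubiquitin rhodamine substrate.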 The settings on record: recombinant USP8 deubiquitinase activity assay.
Ubiquitin carboxyl-terminal hydrolase 8 (Homo sapiens), sequence (P40818 whole entry, looked up): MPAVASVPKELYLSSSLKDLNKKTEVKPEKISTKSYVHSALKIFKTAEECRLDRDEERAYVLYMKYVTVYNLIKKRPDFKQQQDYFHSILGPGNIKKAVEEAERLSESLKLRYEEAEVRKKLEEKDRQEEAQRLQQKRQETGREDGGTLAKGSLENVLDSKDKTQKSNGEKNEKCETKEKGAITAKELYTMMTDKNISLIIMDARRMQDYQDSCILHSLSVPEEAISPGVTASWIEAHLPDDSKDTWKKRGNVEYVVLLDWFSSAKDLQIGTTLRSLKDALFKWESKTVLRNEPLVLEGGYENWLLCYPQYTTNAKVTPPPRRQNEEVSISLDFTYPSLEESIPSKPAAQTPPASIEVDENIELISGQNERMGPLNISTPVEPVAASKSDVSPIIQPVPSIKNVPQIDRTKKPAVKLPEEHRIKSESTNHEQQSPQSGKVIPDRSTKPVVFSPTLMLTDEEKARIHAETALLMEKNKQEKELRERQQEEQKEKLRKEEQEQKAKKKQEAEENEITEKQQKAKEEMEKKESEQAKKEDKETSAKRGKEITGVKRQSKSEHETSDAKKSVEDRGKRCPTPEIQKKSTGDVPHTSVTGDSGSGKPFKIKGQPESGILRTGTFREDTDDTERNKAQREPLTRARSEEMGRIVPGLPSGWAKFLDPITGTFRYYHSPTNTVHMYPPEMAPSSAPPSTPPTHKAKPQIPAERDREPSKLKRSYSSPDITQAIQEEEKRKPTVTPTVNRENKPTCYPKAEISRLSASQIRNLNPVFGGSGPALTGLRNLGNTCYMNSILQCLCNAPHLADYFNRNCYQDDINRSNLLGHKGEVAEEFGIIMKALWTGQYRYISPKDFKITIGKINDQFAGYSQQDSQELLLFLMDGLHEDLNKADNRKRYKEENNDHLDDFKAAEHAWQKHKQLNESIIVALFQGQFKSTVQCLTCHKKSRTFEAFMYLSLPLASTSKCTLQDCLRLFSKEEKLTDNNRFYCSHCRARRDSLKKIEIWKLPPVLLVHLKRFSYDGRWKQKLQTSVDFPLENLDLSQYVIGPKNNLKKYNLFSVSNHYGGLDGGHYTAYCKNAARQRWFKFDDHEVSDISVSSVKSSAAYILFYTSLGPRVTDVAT
Consider `COc1ccc(-n2ccn3c(CCC(=O)Nc4cccc(C)c4)nnc3c2=O)cc1`, for which the IC50 was > 40 µM (inactive).

For the compound `O=C(CSc1ccc2nnc(-c3ccc(Cl)cc3)n2n1)N1CCCCC1`, the IC50 is > 40 µM (inactive).

Consider `Cc1ccc2c(CNCCC3=CCCCC3)c(C(=O)O)n(C)c2c1`, for which the IC50 is > 40 µM (inactive).

Turning to `CCCCCCC1CCC(O)CC(O)CC(O)CC(O)CC(O)CC(O)/C(C)=C/C=C\C=C/C=C/C=C/[C@H](O)[C@@H](C)OC1=O` (some centres undefined), the IC50 is > 40 µM (inactive).

Take `CN(C)c1cccc(-c2nnc(SCC(=O)Nc3ccc(F)cc3)n2-c2ccccc2)c1`: the IC50 is > 40 µM (inactive).

For the compound `COc1ccc(NC(=O)COc2cc(C)nc(-c3ccc(C)cc3)n2)c(OC)c1`, the IC50 is > 40 µM (inactive).

Regarding `O=c1c2ccccc2nc(/C=C/c2ccco2)n1Cc1ccccc1`, the IC50 was > 40 µM (inactive).

Turning to `Cn1cc(C(=O)Nc2ccccc2)c2[nH]c(=O)n(Cc3ccccc3)c(=O)c21`, the IC50 was > 40 µM (inactive).

`CCCn1c(=O)c(-c2ccc(C(=O)NCc3ccc(OC)cc3)cc2)nc2cccnc21`: the IC50 is > 40 µM (inactive).

`O=C(Cn1c(-c2nc(-c3cccc(F)c3)no2)cccc1=O)NCc1ccco1`: the IC50 is > 40 µM (inactive).

Regarding `O=C(Cc1nnc(NC(=O)Nc2ccc3c(c2)OCO3)s1)NCc1ccccc1`, the IC50 was > 40 µM (inactive).

Take `COc1ccc(NC(=O)Cn2c(=O)n(CCC(=O)NCc3ccccc3)c(=O)c3sccc32)cc1Cl`: the IC50 was > 40 µM (inactive).

For `COc1ccc(CC(=O)OCC(=O)N2c3ccccc3NC(=O)C2(C)C)cc1`, the IC50 was > 40 µM (inactive).

Regarding `CSCCC(NC(=O)c1ccccc1)c1nc2ccccc2n1CC(=O)Nc1ccccc1` (centres undefined), the IC50 is > 40 µM (inactive).

Turning to `COc1ccc(CCNC(=O)CSc2cn(CCNC(=O)c3ccccc3C)c3ccccc23)cc1OC`, the IC50 was > 40 µM (inactive).

For `CCCCCCCCC/C=C/C(=O)CCc1c(O)c(C=O)c2c(c1O)C(=O)OC2O` (centres undefined), the IC50 is 0.514 µM.

Turning to `O=c1c(S(=O)(=O)c2cc(F)cc(F)c2)c[nH]c2cc(Cl)ccc12`, the IC50 was 25.6 µM.

For `N#Cc1ccccc1NC(=O)c1cc2c(s1)-c1ccccc1S(=O)(=O)C2`, the IC50 was > 40 µM (inactive).

Consider `C=C/C(=C/C(=O)C[C@H](C)C[C@@H](C)CC[C@H](O)[C@H](C)C(=O)CC(O)[C@H](C)[C@@H](C)OC(=O)C[C@@H](O)C1=C(C)C(=O)OC1=O)CC` (some centres undefined), for which the IC50 was 2.6 µM.

For `COCCCN1CCS(=O)(=O)c2c(Cl)c(F)nc(Oc3ccc(C#N)cc3)c21`, the IC50 was > 40 µM (inactive).

For the compound `O=c1c2ccccc2oc2nc(-c3cccs3)n(-c3ccccc3)c(=O)c12`, the IC50 is 2.3 µM.

As for `COc1cc2c(oc(=O)c3cc(C)cc(OC)c32)c2c([C@@H]3OC(C)[C@@H](O)[C@@](C)(O)C3O)ccc(O)c12` (some centres undefined), the IC50 was > 40 µM (inactive).

Regarding `Brc1ccc(Nc2nc(-c3ccccn3)nc3ccccc23)cc1`, the IC50 was 16.6 µM.

Turning to `COc1ccc(NC(=O)c2[nH]nc3c2COc2ccccc2-3)c(OC)c1`, the IC50 is > 40 µM (inactive).

For the compound `N#Cc1c(-c2ccc(Cl)cc2)cc(-c2cccc(Br)c2)[nH]c1=O`, the IC50 was 25.5 µM.

Turning to `O=C(NCc1ccc2c(c1)OCO2)c1cn(-c2cccc(Cl)c2)nn1`, the IC50 is > 40 µM (inactive).

On to `CCOc1cc2c(cc1OCC)C(c1cc3c(cc1Br)OCO3)NCC2` (centres undefined), for which the IC50 is > 40 µM (inactive).

With `COc1ccc(Cn2nc(C)cc2NC(=O)c2cccc(F)c2)cc1OC`, the IC50 was > 40 µM (inactive).

As for `Cc1cccc2nc(CSc3nc4ccc([N+](=O)[O-])cc4[nH]3)cn12`, the IC50 is > 40 µM (inactive).

Turning to `COc1ccc(NC(=O)Cn2c(C)cc(=O)n3nc(-c4cccc(C)c4)nc23)cc1`, the IC50 was > 40 µM (inactive).

As for `COc1ccc(NC(=O)Cn2c(=O)n(CCCC(=O)NCCc3ccc(OC)c(OC)c3)c(=O)c3ccccc32)cc1Cl`, the IC50 was > 40 µM (inactive).

As to `Fc1cccc(Nc2ncnc3c2oc2ccccc23)c1`, the IC50 was > 40 µM (inactive).

In the case of `CC(C)=CCc1c2c(c3occ(-c4ccc(O)cc4)c(=O)c3c1O)C=CC(C)(C)O2`, the IC50 is > 40 µM (inactive).

Take `N#C/C(=C\c1ccc(OCc2cccc(C(=O)O)c2)cc1)c1ccc(F)cc1`: the IC50 was > 40 µM (inactive).

Consider `O=C(Cn1nc(-c2ccccc2)cc(NC(=O)c2ccccc2)c1=O)Nc1ccc(F)cc1`, for which the IC50 is > 40 µM (inactive).

Turning to `CN1c2ccccc2C(=O)NC12CCN(C(=O)NCc1ccccc1)CC2`, the IC50 is > 40 µM (inactive).

Consider `Cc1cc(C(=O)CSc2nc3ccccc3[nH]2)c(C)n1Cc1ccco1`, for which the IC50 was > 40 µM (inactive).

Turning to `CC(C)c1nnc(NC(=O)C2CC(=O)N(CCc3ccc(F)cc3)C2)s1` (centres undefined), the IC50 was > 40 µM (inactive).

Take `CS(=O)(=O)c1cccc(C(=O)Nc2sc3c(c2C(N)=O)CCCC3)c1`: the IC50 was > 40 µM (inactive).

As to `COc1ccc(-c2onc(C)c2C)cc1S(=O)(=O)NCc1ccc(F)cc1`, the IC50 is > 40 µM (inactive).

In the case of `Cc1ccc(Nc2nc(O)c(CC(=O)Nc3ccccc3C)s2)cc1C`, the IC50 is > 40 µM (inactive).

With `CCCCCCCc1cc(OC(=O)c2c(CCCCCCC)cc(O)cc2O[C@@H]2O[C@H](CO)[C@H](O)[C@H](O)[C@H]2O)cc(O)c1C(=O)O`, the IC50 is 9.43 µM.

For the compound `CCCc1nnc(NC(=O)c2cc(-c3ccccc3O)n[nH]2)s1`, the IC50 was > 40 µM (inactive).

Take `O=C1CC(C(=O)Nc2ccc3c(c2)OCO3)n2nc(SCc3ccccc3)nc2N1` (centres undefined): the IC50 is > 40 µM (inactive).

With `CCN(Cc1ccccc1)C(=O)C1CCN(Cc2ccc(OC)c(OC)c2OC)CC1`, the IC50 was > 40 µM (inactive).

Take `NC(=O)C[C@H](NC(=O)[C@H](Cc1ccccc1)n1c(=O)[nH]c2ccccc2c1=O)C(=O)N[C@@H](Cc1ccccc1)C(=O)O`: the IC50 is > 40 µM (inactive).

For the compound `CC(C)c1ccc(NC(=O)COC(=O)c2ccc(NS(=O)(=O)c3ccc4c(c3)OCCO4)cc2)cc1`, the IC50 is > 40 µM (inactive).

With `Cc1ccc(Cn2cc(-c3noc(C(=O)Nc4cc(F)ccc4F)n3)nn2)cc1`, the half-maximal inhibitory concentration (IC50) was 21.8 µM.

Take `CN(C)[C@@H]1C(=O)C(C(N)=O)=C(O)[C@@]2(O)C(=O)C3=C(O)c4c(O)cccc4[C@@](C)(O)C3[C@H](O)[C@@H]12` (some centres undefined): the IC50 is 0.702 µM.

Turning to `CS(=O)(=O)NC1CCCN(C(=O)Nc2cccc3ccccc23)C1` (centres undefined), the IC50 is > 40 µM (inactive).

As to `COc1ccc(C(=O)C(C)OC(=O)c2cccc(S(=O)(=O)Nc3cc([N+](=O)[O-])ccc3OC)c2)c(OC)c1` (centres undefined), the IC50 is > 40 µM (inactive).

Consider `O=c1[nH]c2ccc(S(=O)(=O)Nc3ccc(O)c4ccccc34)cc2[nH]1`, for which the IC50 is 11.2 µM.

As for `N#Cc1ccccc1Cn1c(=O)n(CCCC(=O)NCc2ccc(F)cc2)c(=O)c2ccccc21`, the IC50 is > 40 µM (inactive).

On to `Cc1nc(N2CCCC2)ncc1-c1cc(=O)[nH]c(Nc2ccc(Cl)cc2Cl)n1`, for which the IC50 was > 40 µM (inactive).

`O=C1CC(c2cc3c(cc2Br)OCO3)c2cc3c(cc2N1)OCCO3` (centres undefined): the IC50 was > 40 µM (inactive).

Regarding `COc1ccc(COc2ccc3c(C)c(CC(=O)N4CC[C@@]5(O)CCCC[C@H]5C4)c(=O)oc3c2)cc1`, the IC50 was > 40 µM (inactive).

Consider `COc1cc2c(=O)n(Cc3ccccc3)c(=O)n(CC(=O)N3CCCc4ccccc43)c2cc1OC`, for which the IC50 is > 40 µM (inactive).

Turning to `C[C@H](NC(=O)Cc1ccccc1F)c1nc2cc(-c3ccccc3F)ncn2n1`, the IC50 is > 40 µM (inactive).

As to `Cc1cccc(N2C(=O)/C(=C\c3cc(C#N)n(C)c3C)c3ccccc3C2=O)c1`, the IC50 is > 40 µM (inactive).

As for `O=C(Cn1c(=O)c2sccc2n(CC(=O)OCc2ccccc2)c1=O)NCc1ccccc1Cl`, the IC50 was > 40 µM (inactive).

Consider `COc1c(O)cc(CC(=O)O)c(C(C)=O)c1O`, for which the half-maximal inhibitory concentration (IC50) is 4.69 µM.

For `O=C(COc1ccc(Cl)cc1Cl)Nc1ccc2[nH]c(=O)[nH]c2c1`, the IC50 is > 40 µM (inactive).

Take `COC(=O)c1ccccc1NC(=O)Cn1c(=O)n(Cc2ccc(C(=O)NCc3ccco3)cc2)c(=O)c2ccccc21`: the IC50 is > 40 µM (inactive).

Consider `Cc1ccccc1-c1noc(-c2cn(Cc3ccc(NC(=O)Cc4ccccc4)cc3)cn2)n1`, for which the IC50 was > 40 µM (inactive).

For `COc1cccc(CNc2ccc(-c3nc(-c4ccccc4)no3)nn2)c1`, the IC50 is > 40 µM (inactive).

`O[C@H]1[C@H](NCc2cccc(C(F)(F)F)c2)[C@@H](c2cncnc2)C[C@H]1O`: the IC50 was > 40 µM (inactive).

In the case of `Cn1cc2cccc(NC(=O)c3ccc(F)cc3)c2n1`, the IC50 is > 40 µM (inactive).

As to `COc1ccc(-c2ccc3cc(C(=O)O)ccc3c2)cc1C12CC3CC(CC(C3)C1)C2`, the IC50 was 8.03 µM.

`O=C(NC1(O)C(=O)c2ccccc2C1=O)c1cccc2c1-c1ccccc1C2=O`: the concentration for half-maximal inhibition (IC50) is 6.52 µM.

For the compound `CSc1ncccc1C(=O)NC1(O)C(=O)c2ccccc2C1=O`, the IC50 was 5.16 µM.

Turning to `Cc1ccc2[nH]cc(S(=O)(=O)c3cc(F)cc(F)c3)c(=O)c2c1`, the IC50 was > 40 µM (inactive).

In the case of `Cc1cc(OCC(=O)Nc2ccccc2C(=O)Nc2ccccc2)ccc1Cl`, the IC50 was > 40 µM (inactive).

For `CCn1c(SCC(=O)c2c(N)n(CC(C)C)c(=O)n(C)c2=O)nnc1-c1ccccc1`, the IC50 is > 40 µM (inactive).

On to `COC(=O)c1ccc(C(=O)Nc2cc3ccccc3cc2NC(=O)c2ccc(C(=O)OC)cc2)cc1`, for which the IC50 is > 40 µM (inactive).

For `O=C(COc1ccc(N2CC(C(=O)NCc3ccccc3)CC2=O)cc1)Nc1ccccc1Cl` (centres undefined), the IC50 is > 40 µM (inactive).

Consider `COc1ccc(CCNC(=O)Cn2c(=O)n(-c3ccc(CC(=O)NCCc4ccccc4)cc3)c(=O)c3ccccc32)cc1OC`, for which the IC50 is > 40 µM (inactive).

`O=C(Cn1ccc2ccn(Cc3ccccc3)c2c1=O)Nc1ccccc1Cl`: the IC50 was > 40 µM (inactive).

On to `O=C(COc1ccccc1)Nc1ccc(-c2nc3cnccc3o2)c(O)c1`, for which the IC50 was > 40 µM (inactive).

On to `COC(=O)c1ccc(NC(=O)/C=C/c2ccc(F)cc2)cc1`, for which the IC50 is > 40 µM (inactive).
